# Target: T1, Human ATX protein (Homo sapiens, UniProt Q13822)
# T1 construct: made in house
# Experiment: ATX biochemical FRET assay with FS-3 substrate
# Details: FS-3 substrate 2 μM, ATX 1.0 μg/mL, 30 min preincubation, 2 hours at room temperature
# From the text: ATX (Autotaxin) is a 125 KDa glycoprotein with lysophospholipase D (LPLD) activity that generates the bioactive lipid lysophosphatidic acid (LPA) from lysophosphatidylcholine (LPC). The ATX biochemical assay utilizes a FRET (fluorescence resonance energy transfer) technology platform. The fluorescence signal of FRET substrate FS-3 is quenched due to intra-molecular FRET of a fluorophore to a non-fluorescing quencher (Ferguson, C. G., et al., Org Lett. 2006 May 11; 8(10): 2023-2026, which is incorporated by reference in its entirety). ATX catalyzes the hydrolysis of the substrate which separates the dabsyl quencher from the fluorescein reporter, which becomes fluorescent. The reaction is monitored by a SpectraMax M5 (Molecular Devices, Sunnyvale, Calif.) with at excitation wavelength 485 nm and emission wavelength […].
# Fatty acid free-BSA (Sigma A8806): 10 mg/mL in H2O, stored at 4° C.
# 2×ATX assay buffer: 100 mM Tris, 280 mM NaCl, 10 mM KCl, 2 mM CaCl2, 2 mM MgCl2, pH 7.4.
# Human ATX protein: expressed and purified in house. Stored at −80° C.
# Substrate FS-3 (Echelon, L-2000): 100 μg in 77.74.L H2O (1 mM stock), stored at −20° C.
# 384-well flat bottom plates—Corning #3575.
# Compound dilution—All compounds were provided at 10 mM in 100% DMSO. In the first well, 2 μL of 10 mM compound was added to 78 μL of DMSO (1:40 dilution). In subsequent wells 3-fold dilution (total 10 dilutions) were performed.
# 1×ATX assay buffer was made up with a final concentration of 1 mg/mL fatty acid free-BSA using 2×ATX assay buffer, 10 mg/ml fatty acid free-BSA and ddH2O.
# ATX protein was diluted with 1×ATX assay buffer to a concentration of 1.32 μg/mL (1.32×). 38 μL was added per well to the assay plate. The final concentration of ATX in the reaction as 1.0 μg/mL.
# 2 μL per well of compounds was transferred to provide the desired concentration. The plate was centrifuged, then incubated at room temperature for 30 minutes on the shaker.
# FS-3 was diluted with 1×ATX assay buffer to a concentration of FS-3 of 10 μM (5×). Then, 10 μL was added per well to the assay plate. The final concentration of FS-3 in the reaction was 2 μM. The plate was centrifuged. The plate was kept shaking at room temperature for 2 hours. Because FS-3 substrate is light sensitive, plates were kept covered and protected from light.
# Fluorescence was measured using SpectraMax M5 (excitation at 485 nm/emission at 538 nm, top read).
row,IC50 [nM],Structure (SMILES)
1,≤ 250,"O=C(O)[C@H]1CC[C@H](CNCc2ccc3c(C(F)(F)F)c(O[C@H]4CC[C@@H](C(F)(F)F)CC4)ccc3c2)CC1 [Example 25, (trans)-4-(((5-(trifluoromethyl)-6-((cis)-4-(trifluoromethyl)cyclohexyloxy)naphthalen-2-yl)methylamino)methyl)cyclohexanecarboxylic acid]"
2,≤ 250,"O=C(O)[C@H]1CCCN(Cc2ccc3c(C(F)(F)F)c(O[C@H]4CC[C@@H](C(F)(F)F)CC4)ccc3c2)C1 [Example 26, (S)-1-((5-(trifluoromethyl)-6-((cis)-4-(trifluoromethyl)cyclohexyloxy)naphthalen-2-yl)methyl)piperidine-3-carboxylic acid]"
3,≤ 500,"CN(Cc1ccc2c(C(F)(F)F)c(O[C@H]3CC[C@@H](C(F)(F)F)CC3)ccc2c1)C[C@H]1CC[C@H](C(=O)O)CC1 [Example 28, (trans)-4-((methyl((5-(trifluoromethyl)-6-((cis)-4-(trifluoromethyl)cyclohexyloxy)naphthalen-2-yl)methyl)amino)methyl)cyclohexanecarboxylic acid]"
4,≤ 500,"CC1(C(=O)O)CCN(Cc2ccc3c(C(F)(F)F)c(O[C@H]4CC[C@@H](C(F)(F)F)CC4)ccc3c2)CC1 [Example 30, 4-methyl-1-((5-(trifluoromethyl)-6-((cis)-4-(trifluoromethyl)cyclohexyloxy)naphthalen-2-yl)methyl)piperidine-4-carboxylic acid]"
5,≤ 250,"O=C(O)[C@H]1CC[C@H](CNCc2ccc3c(C(F)F)c(O[C@H]4CC[C@@H](C(F)(F)F)CC4)ccc3c2)CC1 [Example 34, (trans)-4-(((5-(difluoromethyl)-6-((cis)-4-(trifluoromethyl)cyclohexyloxy)naphthalen-2-yl)methylamino)methyl)cyclohexanecarboxylic acid]"
6,≤ 100,"CC(NC1CC(C(=O)O)C1(C)C)c1ccc2c(C(F)(F)F)c(O[C@H]3CC[C@@H](C(F)(F)F)CC3)ccc2c1 (stereo partly drawn) [Example 37, 2,2-dimethyl-3-(1-(5-(trifluoromethyl)-6-((cis)-4-(trifluoromethyl)cyclohexyloxy)naphthalen-2-yl)ethylamino)cyclobutanecarboxylic acid]"
7,≤ 250,CC1(C)C(NC(c2ccc3c(C(F)(F)F)c(O[C@H]4CC[C@@H](C)CC4)ccc3c2)C2CC2)CC1C(=O)O (stereo partly drawn) [Example 38]
8,≤ 500,CC1(C)C(NC(c2ccc3c(C(F)(F)F)c(O[C@H]4CC[C@@H](C)CC4)ccc3c2)C2CCCCC2)CC1C(=O)O (stereo partly drawn) [Example 42]
9,≤ 500,CC1(C)C(NC(c2ccc3c(C(F)(F)F)c(O[C@H]4CC[C@@H](C(F)(F)F)CC4)ccc3c2)C2CCCCC2)CC1C(=O)O (stereo partly drawn) [Example 43]
10,≤ 100,CC1(C)C(NC(c2ccc3c(C(F)(F)F)c(O[C@H]4CC[C@@H](C(F)(F)F)CC4)ccc3c2)C2CC2)CC1C(=O)O (stereo partly drawn) [Example 44]
11,≤ 500,"C[C@H]1CC[C@@H](Oc2ccc3cc(CN4CC(CC(=O)O)C4)ccc3c2C(F)(F)F)CC1 [Example 47, 1-((5-trifluoromethyl-6-(cis-4-methylcyclohexyloxy)naphthalene-2-yl)methyl)-azetidine-3-acetic acid]"
12,≤ 100,"C[C@H]1CC[C@@H](Oc2ccc3cc(CN4CCC[C@H](CC(=O)O)C4)ccc3c2C(F)(F)F)CC1 [Example 49, 2-((3R)-1-((6-((cis-4-Methylcyclohexyl)oxy)-5-(trifluoromethyl)naphthalen-2-yl)methyl)piperidin-3-yl)acetic acid]"
13,≤ 100,"CC(c1ccc2c(C(F)(F)F)c(O[C@H]3CC[C@@H](C)CC3)ccc2c1)N1CCC[C@H](CC(=O)O)C1 (stereo partly drawn) [Example 51, 2-((3R)-1-(1-(6-((cis-4-Methylcyclohexyl)oxy)-5-(trifluoromethyl)naphthalen-2-yl)ethyl)piperidin-3-yl)acetic acid]"
14,≤ 100,"CCC(c1ccc2c(C(F)(F)F)c(O[C@H]3CC[C@@H](C)CC3)ccc2c1)N1CCC[C@@H](CC(=O)O)C1 (stereo partly drawn) [Example 52, 2-((3S)-1-(1-(6-((cis-4-Methylcyclohexyl)oxy)-5-(trifluoromethyl)naphthalen-2-yl)propyl)piperidin-3-yl)acetic acid]"
15,≤ 100,"CC(c1ccc2c(C(F)F)c(O[C@H]3CC[C@@H](C)CC3)ccc2c1)N1CCC[C@H](CC(=O)O)C1 (stereo partly drawn) [Example 53, 2-((3R)-1-(1-(6-((cis-4-Methylcyclohexyl)oxy)-5-(difluoromethyl)naphthalen-2-yl)ethyl)piperidin-3-yl)acetic acid]"
16,≤ 100,"CC(c1ccc2c(C(F)F)c(O[C@H]3CC[C@@H](C)CC3)ccc2c1)N1CCC[C@@H](CC(=O)O)C1 (stereo partly drawn) [Example 54, 2-((3S)-1-(1-(6-((cis-4-Methylcyclohexyl)oxy)-5-(difluoromethyl)naphthalen-2-yl)ethyl)piperidin-3-yl)acetic acid]"
17,≤ 100,"C[C@H]1CC[C@@H](Oc2ccc3cc(CN4CCC[C@H](CC(=O)O)C4)ccc3c2C(F)F)CC1 [Example 56, 2-((3R)-1-((6-((cis-4-Methylcyclohexyl)oxy)-5-(difluoromethyl)naphthalen-2-yl)methyl)piperidin-3-yl)acetic acid]"
18,≤ 100,"CCC(c1ccc2c(C(F)F)c(O[C@H]3CC[C@@H](C)CC3)ccc2c1)N1CCC[C@H](CC(=O)O)C1 (stereo partly drawn) [Example 57, 2-((3R)-1-(1-(6-((cis-4-Methylcyclohexyl)oxy)-5-(difluoromethyl)naphthalen-2-yl)propyl)piperidin-3-yl)acetic acid]"
19,≤ 100,"CC[C@@H](c1ccc2c(C(F)(F)F)c(O[C@H]3CC[C@@H](C)CC3)ccc2c1)N1CCC[C@H](CC(=O)O)C1 [Example 59, 2-((3R)-1-((S)-1-(6-((cis-4-Methylcyclohexyl)oxy)-5-(trifluoromethyl)naphthalen-2-yl)propyl)piperidin-3-yl)acetic acid]"
20,≤ 100,"CC[C@H](c1ccc2c(C(F)(F)F)c(O[C@H]3CC[C@@H](C)CC3)ccc2c1)N1CCC[C@H](CC(=O)O)C1 [Example 60, 2-((3R)-1-((R)-1-(6-((cis-4-Methylcyclohexyl)oxy)-5-(trifluoromethyl)naphthalen-2-yl)propyl)piperidin-3-yl)acetic acid]"
21,≤ 250,"C[C@@H](c1ccc2c(C(F)F)c(O[C@H]3CC[C@@H](C)CC3)ccc2c1)N1CCC(C(=O)O)CC1 [Example 61, 1-((S)-1-(6-((cis-4-Methylcyclohexyl)oxy)-5-(difluoromethyl)naphthalen-2-yl)ethyl)piperidine-4-carboxylic acid]"
22,≤ 250,"O=C(O)CC1CN(Cc2ccc3c(C(F)(F)F)c(O[C@H]4CC[C@@H](C(F)(F)F)CC4)ccc3c2)C1 [Example 62, 2-(1-((5-(trifluoromethyl)-6-(4-cis-(trifluoromethyl)cyclohexyloxy)naphthalene-2-yl)methyl)azetidine-3-yl)acetic acid]"
23,≤ 100,"O=P(O)(O)CCCNCc1ccc2c(C(F)(F)F)c(O[C@H]3CC[C@@H](C(F)(F)F)CC3)ccc2c1 [Example 63, 3-(((5-(trifluoromethyl)-6-(cis-4-(trifluoromethyl)cyclohexyloxy)naphthalene-2-yl)methyl)amino)propylphosphonic acid]"
24,≤ 250,"O=C(O)CC1CCN(Cc2ccc3c(C(F)(F)F)c(O[C@H]4CC[C@@H](C(F)(F)F)CC4)ccc3c2)CC1 [Example 65, 1-((5-(trifluoromethyl)-6-((cis-4-(trifluoromethyl)cyclohexyl)oxy)-naphthalen-2-yl)methyl)piperidine-4-acetic acid]"
25,≤ 100,"O=P(O)(O)Cc1ccc(NCc2ccc3c(C(F)(F)F)c(O[C@H]4CC[C@@H](C(F)(F)F)CC4)ccc3c2)cc1 [Example 68, (4-((5-(trifluoromethyl)-6-(cis-4-(trifluoromethyl)cyclohexyloxy)naphthalene-2-yl)methyl)aminophenyl)methylphosphonic acid]"
26,≤ 250,"O=C(O)c1ccc(CNCc2ccc3c(C(F)(F)F)c(O[C@H]4CC[C@@H](C(F)(F)F)CC4)ccc3c2)nc1 [Example 69, 6-((((5-(trifluoromethyl)-6-((cis)-4-(trifluoromethyl)cyclohexyloxy)naphthalene-2-yl)methyl)amino)methyl)nicotinic acid]"
27,≤ 500,"O=C(O)[C@H]1CC[C@@H](NCc2ccc3c(C(F)(F)F)c(O[C@H]4CC[C@@H](C(F)(F)F)CC4)ccc3c2)CC1 [Example 70, cis-4-(((5-(trifluoromethyl)-6-((cis)-4-(trifluoromethyl)cyclohexyloxy)naphthalene-2-yl)methyl)amino)cyclohexane-1-carboxylic acid]"
